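All cell lines were grown in 96-well plates and treated with compound for 48 hours. The concentration for 50% growth inhibition is given as GI50.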 The source made the active and inactive calls. Rule as the data show it: active = GI50 up to about 1.1 µM and inactive = higher.
How the values were obtained:
Experiment in all cases: growth of human tumour cells (NCI), 48 h
RXF 393 = tested on: RXF 393
HCT-116 = tested on: HCT-116
EKVX = tested on: EKVX
T47D = tested on: T47D
CCRF-CEM = tested on: CCRF-CEM
PC-3 = tested on: PC-3
Hs-578T = tested on: Hs-578T
SF-539 = tested on: SF-539
SK-MEL-5 = tested on: SK-MEL-5
NCI-H23 = tested on: NCI-H23
MDA-MB-231 = tested on: MDA-MB-231
IGROV-1 = tested on: IGROV-1
ACHN = tested on: ACHN
Malme-3M = tested on: Malme-3M
HL-60 = tested on: HL-60
SF-268 = tested on: SF-268
NCI-H522 = tested on: NCI-H522
OVCAR-8 = tested on: OVCAR-8
HOP-92 = tested on: HOP-92

SMILES	GI50 (RXF 393)	GI50 (HCT-116)	GI50 (EKVX)	GI50 (T47D)	GI50 (CCRF-CEM)	GI50 (PC-3)	GI50 (Hs-578T)	GI50 (SF-539)	GI50 (SK-MEL-5)	GI50 (NCI-H23)	GI50 (MDA-MB-231)	GI50 (IGROV-1)	GI50 (ACHN)	GI50 (Malme-3M)	GI50 (HL-60)	GI50 (SF-268)	GI50 (NCI-H522)	GI50 (OVCAR-8)	GI50 (HOP-92)
CN(C)CCn1c(CO)nc2c1c(=O)n(C)c(=O)n2C	> 100 µM (inactive)	> 100 µM (inactive)	> 100 µM (inactive)	> 100 µM (inactive)	> 100 µM (inactive)	> 100 µM (inactive)	> 100 µM (inactive)	> 100 µM (inactive)	> 100 µM (inactive)	> 100 µM (inactive)	> 100 µM (inactive)	> 100 µM (inactive)	> 100 µM (inactive)	> 100 µM (inactive)	> 100 µM (inactive)	> 100 µM (inactive)	> 100 µM (inactive)	> 100 µM (inactive)	
NS(=O)(=O)c1ccc(-c2ccc([As](=O)(O)O)cc2)cc1	> 100 µM (inactive)	> 100 µM (inactive)	> 100 µM (inactive)	> 100 µM (inactive)		> 100 µM (inactive)	> 100 µM (inactive)	> 100 µM (inactive)	> 100 µM (inactive)	> 100 µM (inactive)	> 100 µM (inactive)	> 100 µM (inactive)	> 100 µM (inactive)	> 100 µM (inactive)	> 100 µM (inactive)	> 100 µM (inactive)	> 100 µM (inactive)	> 100 µM (inactive)	> 100 µM (inactive)
Cc1c(C2CCSc3ccccc3N2)sc2ccccc12 (centres undefined)	86.5 µM (inactive)	62.1 µM (inactive)	30.9 µM (inactive)	87.9 µM (inactive)		> 100 µM (inactive)	> 100 µM (inactive)	> 100 µM (inactive)	> 100 µM (inactive)	> 100 µM (inactive)	> 100 µM (inactive)	> 100 µM (inactive)	> 100 µM (inactive)	64.3 µM (inactive)	55.5 µM (inactive)	> 100 µM (inactive)	47 µM (inactive)	> 100 µM (inactive)	> 100 µM (inactive)
CNC(=O)CNC(=O)C(Cc1ccc(NC(=O)CCCCC(C)=O)cc1)NC(=O)C(CCC(=O)OCc1ccccc1)NC(=O)OC(C)(C)C (centres undefined)	> 100 µM (inactive)	> 100 µM (inactive)	> 100 µM (inactive)	> 100 µM (inactive)		> 100 µM (inactive)	> 100 µM (inactive)	> 100 µM (inactive)	> 100 µM (inactive)	> 100 µM (inactive)	> 100 µM (inactive)	> 100 µM (inactive)	> 100 µM (inactive)	> 100 µM (inactive)	> 100 µM (inactive)	> 100 µM (inactive)	> 100 µM (inactive)	> 100 µM (inactive)	> 100 µM (inactive)
O=C(O)CCC(=O)c1ccc2c(c1)C(C(=O)O)CC2 (centres undefined)	0.286 µM (active)	0.0935 µM (active)	> 100 µM (inactive)	> 100 µM (inactive)		> 100 µM (inactive)	> 100 µM (inactive)	> 100 µM (inactive)	> 100 µM (inactive)	> 100 µM (inactive)	> 100 µM (inactive)	> 100 µM (inactive)	> 100 µM (inactive)	> 100 µM (inactive)	> 100 µM (inactive)	> 100 µM (inactive)	> 100 µM (inactive)	0.652 µM (active)	> 100 µM (inactive)
O=C(CC(=O)n1nc(-c2ccccc2)c(/N=N/c2ccc(Cl)cc2)c1-c1ccccc1)Nc1cccc(Cl)c1	> 100 µM (inactive)	61.7 µM (inactive)	25.3 µM (inactive)	> 100 µM (inactive)	38.9 µM (inactive)	75 µM (inactive)	> 100 µM (inactive)		> 100 µM (inactive)	> 100 µM (inactive)	54.7 µM (inactive)	5.25 µM (inactive)	63.8 µM (inactive)	42.9 µM (inactive)	28.5 µM (inactive)			81.1 µM (inactive)	> 100 µM (inactive)
CCOC(=O)c1cc(Br)c(-c2onc(C)c2Br)n1C	10.2 µM (inactive)	18.9 µM (inactive)	6.08 µM (inactive)	15.6 µM (inactive)	30.7 µM (inactive)	35.3 µM (inactive)	10.8 µM (inactive)	> 100 µM (inactive)	16.9 µM (inactive)	47.8 µM (inactive)	24.2 µM (inactive)	59.8 µM (inactive)	41.6 µM (inactive)	52.8 µM (inactive)	11.8 µM (inactive)	75 µM (inactive)	19.1 µM (inactive)	63.4 µM (inactive)	

Reference: ChEMBL document CHEMBL1201862, “PubChem BioAssay data set” (2004)
